Measured values as given in PubChem BioAssay (NCI).
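Five compound concentrations were applied to cells in 96-well plates for 48 hours; endpoints were derived by simple linear interpolation of the resulting dose-response curve. TGI is the concentration that stops growth completely.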

What was measured:
Assay in all cases: NCI tumour cell line growth inhibition, 48 h
786-0 renal = test system: 786-0 renal
A549 NSCLC = test system: A549 NSCLC
ACHN renal = test system: ACHN renal
CCRF-CEM leukemia = test system: CCRF-CEM leukemia
COLO 205 colon = test system: COLO 205 colon
DLD-1 colon = test system: DLD-1 colon
DMS 114 small cell lung = test system: DMS 114 small cell lung
DMS 273 small cell lung = test system: DMS 273 small cell lung
EKVX NSCLC = test system: EKVX NSCLC
HCC-2998 colon = test system: HCC-2998 colon
HCT-116 colon = test system: HCT-116 colon
HCT-15 colon = test system: HCT-15 colon
HL-60(TB) leukemia = test system: HL-60(TB) leukemia
HOP-18 NSCLC = test system: HOP-18 NSCLC
HOP-62 NSCLC = test system: HOP-62 NSCLC
HOP-92 NSCLC = test system: HOP-92 NSCLC
HT29 colon = test system: HT29 colon
IGROV1 ovarian = test system: IGROV1 ovarian
K-562 leukemia = test system: K-562 leukemia
KM12 colon = test system: KM12 colon
KM20L2 colon = test system: KM20L2 colon
LOX IMVI melanoma = test system: LOX IMVI melanoma
LXFL 529 NSCLC = test system: LXFL 529 NSCLC
M14 melanoma = test system: M14 melanoma
M19-MEL melanoma = test system: M19-MEL melanoma
MALME-3M melanoma = test system: MALME-3M melanoma
MOLT-4 leukemia = test system: MOLT-4 leukemia
NCI-H226 lung = test system: NCI-H226 lung
NCI-H23 lung = test system: NCI-H23 lung
NCI-H460 lung = test system: NCI-H460 lung
NCI-H522 lung = test system: NCI-H522 lung
OVCAR-3 ovarian = test system: OVCAR-3 ovarian
OVCAR-4 ovarian = test system: OVCAR-4 ovarian
OVCAR-5 ovarian = test system: OVCAR-5 ovarian
OVCAR-8 ovarian = test system: OVCAR-8 ovarian
RPMI-8226 leukemia = test system: RPMI-8226 leukemia
RXF 393 renal = test system: RXF 393 renal
RXF-631 renal = test system: RXF-631 renal
SF-268 CNS = test system: SF-268 CNS
SF-295 CNS = test system: SF-295 CNS
SF-539 CNS = test system: SF-539 CNS
SK-MEL-2 melanoma = test system: SK-MEL-2 melanoma
SK-MEL-28 melanoma = test system: SK-MEL-28 melanoma
SK-MEL-5 melanoma = test system: SK-MEL-5 melanoma
SK-OV-3 ovarian = test system: SK-OV-3 ovarian
SN12C renal = test system: SN12C renal
SNB-19 CNS = test system: SNB-19 CNS
SNB-75 CNS = test system: SNB-75 CNS
SR leukemia = test system: SR leukemia
SW-620 colon = test system: SW-620 colon
TK-10 renal = test system: TK-10 renal
U251 CNS = test system: U251 CNS
UACC-257 melanoma = test system: UACC-257 melanoma
UACC-62 melanoma = test system: UACC-62 melanoma
UO-31 renal = test system: UO-31 renal
XF 498 CNS = test system: XF 498 CNS
A498 renal = test system: A498 renal
BT-549 breast = test system: BT-549 breast
CAKI-1 renal = test system: CAKI-1 renal
DU-145 prostate = test system: DU-145 prostate
HS 578T breast = test system: HS 578T breast
MCF7 breast = test system: MCF7 breast
MDA-MB-231 breast = test system: MDA-MB-231 breast
MDA-MB-435 = test system: MDA-MB-435
MDA-N = test system: MDA-N
NCI/ADR-RES ovarian = test system: NCI/ADR-RES ovarian
PC-3 prostate = test system: PC-3 prostate
SNB-78 CNS = test system: SNB-78 CNS
T-47D breast = test system: T-47D breast

CCCC/C=C/C1Cc2ccccc2CN1S(=O)(=O)c1ccc(C)cc1 (configuration not stated)
TGI (786-0 renal): 25.1 µM | TGI (A549 NSCLC): 26.3 µM | TGI (ACHN renal): 22.5 µM | TGI (CCRF-CEM leukemia): 42.3 µM | TGI (COLO 205 colon): 22 µM | TGI (DLD-1 colon): 32.9 µM | TGI (DMS 114 small cell lung): 12.2 µM | TGI (DMS 273 small cell lung): 29.6 µM | TGI (EKVX NSCLC): > 100 µM | TGI (HCC-2998 colon): 25.3 µM | TGI (HCT-116 colon): 3.35 µM | TGI (HCT-15 colon): 49.2 µM | TGI (HL-60(TB) leukemia): > 100 µM | TGI (HOP-18 NSCLC): > 100 µM | TGI (HOP-62 NSCLC): > 100 µM | TGI (HOP-92 NSCLC): 8.82 µM | TGI (HT29 colon): 21.7 µM | TGI (IGROV1 ovarian): 26.9 µM | TGI (K-562 leukemia): > 100 µM | TGI (KM12 colon): 22.1 µM | TGI (KM20L2 colon): 26.2 µM | TGI (LOX IMVI melanoma): 22.3 µM | TGI (LXFL 529 NSCLC): 22.1 µM | TGI (M14 melanoma): 26 µM | TGI (M19-MEL melanoma): 18.8 µM | TGI (MALME-3M melanoma): > 100 µM | TGI (MOLT-4 leukemia): 53.3 µM | TGI (NCI-H226 lung): 25.8 µM | TGI (NCI-H23 lung): 16.4 µM | TGI (NCI-H460 lung): 31.3 µM | TGI (NCI-H522 lung): 20.2 µM | TGI (OVCAR-3 ovarian): 24.1 µM | TGI (OVCAR-4 ovarian): 24.7 µM | TGI (OVCAR-5 ovarian): 82.3 µM | TGI (OVCAR-8 ovarian): 28.6 µM | TGI (RPMI-8226 leukemia): 5.72 µM | TGI (RXF 393 renal): 23.9 µM | TGI (RXF-631 renal): 20.9 µM | TGI (SF-268 CNS): 30 µM | TGI (SF-295 CNS): 35.6 µM | TGI (SF-539 CNS): 33 µM | TGI (SK-MEL-2 melanoma): > 100 µM | TGI (SK-MEL-28 melanoma): 22.7 µM | TGI (SK-MEL-5 melanoma): 14.9 µM | TGI (SK-OV-3 ovarian): 90.6 µM | TGI (SN12C renal): 23 µM | TGI (SNB-19 CNS): > 100 µM | TGI (SNB-75 CNS): 37.5 µM | TGI (SR leukemia): 41.8 µM | TGI (SW-620 colon): 24.1 µM | TGI (TK-10 renal): 61.3 µM | TGI (U251 CNS): 39.3 µM | TGI (UACC-257 melanoma): 17.9 µM | TGI (UACC-62 melanoma): 27.5 µM | TGI (UO-31 renal): 18.7 µM | TGI (XF 498 CNS): 78.1 µM

CC(C)(C)c1nc2c(o1)C(=O)c1ccccc1C2=O
TGI (786-0 renal): 5.51 µM | TGI (A498 renal): 11.5 µM | TGI (A549 NSCLC): 8.22 µM | TGI (ACHN renal): 5.69 µM | TGI (BT-549 breast): 2.84 µM | TGI (CAKI-1 renal): 6.77 µM | TGI (CCRF-CEM leukemia): > 29.5 µM | TGI (COLO 205 colon): 8.86 µM | TGI (DLD-1 colon): 14.5 µM | TGI (DMS 114 small cell lung): 5.89 µM | TGI (DMS 273 small cell lung): 12 µM | TGI (DU-145 prostate): 2.57 µM | TGI (EKVX NSCLC): 6.51 µM | TGI (HCC-2998 colon): 7.39 µM | TGI (HCT-116 colon): 2.87 µM | TGI (HCT-15 colon): 6.45 µM | TGI (HL-60(TB) leukemia): 1.78 µM | TGI (HOP-18 NSCLC): 18.9 µM | TGI (HOP-62 NSCLC): 6.34 µM | TGI (HOP-92 NSCLC): 6.44 µM | TGI (HS 578T breast): 4.26 µM | TGI (HT29 colon): 10.7 µM | TGI (IGROV1 ovarian): 6.04 µM | TGI (K-562 leukemia): 13.8 µM | TGI (KM12 colon): 6.76 µM | TGI (KM20L2 colon): 48.2 µM | TGI (LOX IMVI melanoma): 1.94 µM | TGI (LXFL 529 NSCLC): 18.1 µM | TGI (M14 melanoma): 1.97 µM | TGI (M19-MEL melanoma): 2.84 µM | TGI (MALME-3M melanoma): 1.48 µM | TGI (MCF7 breast): 1.35 µM | TGI (MDA-MB-231 breast): 1.97 µM | TGI (MDA-MB-435): 0.327 µM | TGI (MDA-N): 0.367 µM | TGI (MOLT-4 leukemia): 16.9 µM | TGI (NCI-H226 lung): 6.36 µM | TGI (NCI-H23 lung): 1.78 µM | TGI (NCI-H460 lung): 8.19 µM | TGI (NCI-H522 lung): 3.85 µM | TGI (NCI/ADR-RES ovarian): 1.76 µM | TGI (OVCAR-3 ovarian): 2.03 µM | TGI (OVCAR-4 ovarian): 2.44 µM | TGI (OVCAR-5 ovarian): 4.85 µM | TGI (OVCAR-8 ovarian): 3.37 µM | TGI (PC-3 prostate): 2.22 µM | TGI (RPMI-8226 leukemia): 16.8 µM | TGI (RXF 393 renal): 5.54 µM | TGI (RXF-631 renal): 14.9 µM | TGI (SF-268 CNS): 10.5 µM | TGI (SF-295 CNS): 4.25 µM | TGI (SF-539 CNS): 3.4 µM | TGI (SK-MEL-2 melanoma): 1.83 µM | TGI (SK-MEL-28 melanoma): 4.35 µM | TGI (SK-MEL-5 melanoma): 2.9 µM | TGI (SK-OV-3 ovarian): 10.2 µM | TGI (SN12C renal): 2.29 µM | TGI (SNB-19 CNS): 9.81 µM | TGI (SNB-75 CNS): 6.7 µM | TGI (SNB-78 CNS): 39.1 µM | TGI (SR leukemia): 45 µM | TGI (SW-620 colon): 4.4 µM | TGI (T-47D breast): 3.97 µM | TGI (TK-10 renal): 11.7 µM | TGI (U251 CNS): 4.6 µM | TGI (UACC-257 melanoma): 1.43 µM | TGI (UACC-62 melanoma): 1.58 µM | TGI (UO-31 renal): 6.23 µM | TGI (XF 498 CNS): 7.15 µM

COC1=CC(O)(CC(N)=O)c2ccccc2C1=O (configuration not stated)
TGI (786-0 renal): > 100 µM | TGI (A498 renal): > 100 µM | TGI (A549 NSCLC): > 100 µM | TGI (ACHN renal): > 100 µM | TGI (CAKI-1 renal): > 100 µM | TGI (CCRF-CEM leukemia): > 100 µM | TGI (COLO 205 colon): > 100 µM | TGI (DLD-1 colon): > 100 µM | TGI (DMS 114 small cell lung): > 100 µM | TGI (DMS 273 small cell lung): > 100 µM | TGI (EKVX NSCLC): > 100 µM | TGI (HCC-2998 colon): > 100 µM | TGI (HCT-116 colon): > 100 µM | TGI (HCT-15 colon): > 100 µM | TGI (HL-60(TB) leukemia): > 100 µM | TGI (HOP-18 NSCLC): > 100 µM | TGI (HOP-62 NSCLC): > 100 µM | TGI (HOP-92 NSCLC): > 100 µM | TGI (HT29 colon): > 100 µM | TGI (IGROV1 ovarian): > 100 µM | TGI (K-562 leukemia): > 100 µM | TGI (KM12 colon): > 100 µM | TGI (KM20L2 colon): > 100 µM | TGI (LOX IMVI melanoma): > 100 µM | TGI (LXFL 529 NSCLC): > 100 µM | TGI (M14 melanoma): > 100 µM | TGI (M19-MEL melanoma): > 100 µM | TGI (MALME-3M melanoma): > 100 µM | TGI (MOLT-4 leukemia): > 100 µM | TGI (NCI-H226 lung): > 100 µM | TGI (NCI-H460 lung): > 100 µM | TGI (NCI-H522 lung): > 100 µM | TGI (OVCAR-3 ovarian): > 100 µM | TGI (OVCAR-4 ovarian): > 100 µM | TGI (OVCAR-5 ovarian): > 100 µM | TGI (OVCAR-8 ovarian): > 100 µM | TGI (RPMI-8226 leukemia): > 100 µM | TGI (RXF 393 renal): > 100 µM | TGI (RXF-631 renal): > 100 µM | TGI (SF-268 CNS): > 100 µM | TGI (SF-295 CNS): > 100 µM | TGI (SK-MEL-2 melanoma): > 100 µM | TGI (SK-MEL-28 melanoma): > 100 µM | TGI (SK-MEL-5 melanoma): > 100 µM | TGI (SK-OV-3 ovarian): > 100 µM | TGI (SN12C renal): > 100 µM | TGI (SNB-19 CNS): > 100 µM | TGI (SNB-75 CNS): > 100 µM | TGI (SNB-78 CNS): > 100 µM | TGI (SR leukemia): > 100 µM | TGI (SW-620 colon): > 100 µM | TGI (TK-10 renal): > 100 µM | TGI (U251 CNS): > 100 µM | TGI (UACC-257 melanoma): > 100 µM | TGI (UACC-62 melanoma): > 100 µM | TGI (UO-31 renal): > 100 µM | TGI (XF 498 CNS): > 100 µM
